Measured values from patent US4803227A, “Aminoalkyl ethers of phenols as anticancer agents for the breast and colon” (The University of Manitoba, priority 1984, dated 1989).
Counter-ions that a name gives are not always drawn. Like-named read-outs stand apart in the source and are kept apart here.

Columns and labels:
[1] = literature; cited from earlier work
[2] = target: AEBS (anti-estrogen binding site), rat liver microsomes; assay: competition with [3H]-tamoxifen for AEBS, rat liver microsomes; conditions: concentration of cold competitor required to displace 50% of specifically bound label, 1.5 × 10^-9 M [3H]-tamoxifen; read-out: RSBA (M) for AEBS, Rat liver microsomes
Description: (§1) *Relative specific binding affinity (RSBA) is the concentration of cold
(§2) competitor required to displace 50% of the specifically bound label and
(§3) expresses the affinity of the test compound for the receptor relative to
(§4) that of the labelled specific ligand, in this instance 1.5 ×

[3] = test system: MCF-7 human breast cancer cells; assay: cells; conditions: for IC90: Homo sapiens, MCF7, 168 h, read-out: D10 (concentration required to effect a 90% reduction in the number of MCF7 cells)
Protocol: Concentrations are shown on the x-axis. […] A longer exposure time (10 days) was employed because this cell line is slower growing than the MCF-7 cell line.
In the case of MCF-7 cells, approximately 2×10^4 MCF-7 cells were seeded into duplicate 25 cm tissue culture flasks containing Dulbecco's modified Eagle's medium supplemented with insulin (10 μg/ml), glucose ([…])and 5% dextran coated charcoal-stripped fetal calf serum to which was added increasing concentrations of the compound to be tested. Cells were allowed to grow for 7 days with one change of medium containing the test compound on day 4. […] Total cell number at each concentration was determined by Coulter counter. […] D (that concentration required to elicit a 90% reduction in cell number relative to the control after 7 days of treatment) was determined for each compound.

MCF-7 cells = conditions: 7 days; for reversal of growth inhibition by estradiol: 1×10^-8 M estradiol; for inhibition of growth of MCF-7 cells: tamoxifen 5×10^-7 M, N,N-DPPE 1x-8x tamoxifen concentration
estrogen receptor (ER) [4] = conditions: literature; cited from earlier work
[5] = target: AEBS (anti-estrogen binding site), MCF-7 microsomes; assay: competition with [3H]-tamoxifen for AEBS, MCF-7 microsomes; parameters: species or system human; conditions: for IC50: read-out: RSBA (M) for AEBS, MCF-7 microsomes
Description: as §1, §2, §3, §4

estrogen receptor (ER) [6] = assay: competition with [3H] 17 β-estradiol for ER; type: binding
colon carcinoma (3C872) = assay: colon tumor test in female rats implanted with colon carcinoma (3C872); type: in vivo; conditions: for Tumor wt % of Controls / Tumor Evaluation (wt. mg): intramuscular, twice daily for 7 days; for Tumor Evaluation (wt. mg): control 2261
Protocol: The rats had been subcutaneously implanted with colon carcinoma (3C872) and were cancerous. […] The wt. of the tumor was measured after the 7-day treatment and reported as a % (average) of the control tumor wt. (average) using 40 control rats.

[7] = test system: progesterone receptor (PgR) in MCF-7 cells; assay: induction of progesterone receptor (PgR) synthesis in MCF-7 cells; type: cell-based, human; conditions: 5 days of pre-incubation, 1×10^-8 M
[8] = concentration of cold competitor required to displace 50% of specifically bound label, 1.5 × 10^-9 M [3H]-tamoxifen
[9] = microsome preparation not given

CN(C)CCOc1ccccc1Cc1ccccc1 [Phenyltoloxamine, N,N-dimethyl-2[(2-phenylmethyl)phenoxy]ethanamine, reference compound]
anti-histamine effects [1]: pronounced anti-histamine effects | IC50 [2]: 2e-06 M | IC90 [3]: 48 µM | concentrations at which compound becomes significantly cytotoxic for MCF-7 cells ([3]; human, 10080 min): > 100 µM

CC/C(=C(\c1ccccc1)c1ccc(OCCN(C)C)cc1)c1ccccc1 [Tamoxifen, 1-(p-β-dimethylaminoethoxyphenyl)-trans-1,2-diphenylbut-1-ene, reference compound]
reversal of growth inhibition by estradiol (MCF-7 cells): largely but not completely reversed by the addition of 1×10^-8 M estradiol | inhibition of growth of MCF-7 cells (MCF-7 cells; absence of estradiol): Significant inhibition | competition for the estrogen receptor (estrogen receptor (ER) [4]): compete for the estrogen receptor (ER) | IC90 [3]: 4.8 µM

c1ccc(Cc2ccc(OCCN3CCOCC3)cc2)cc1 [MPPE, N-morpholino-2-[(4-phenylmethyl)phenoxy]ethanamine hydrochloride]
IC90 [3]: 16 µM | IC50 [5, 8]: 6.6e-07 M | binding to AEBS [5, 9]: bind significantly to AEBS | binding to ER (estrogen receptor (ER) [6]): only weakly to ER

C(=C(c1ccccc1)c1ccccc1)c1ccccc1 [Triphenylethylene, triphenylethylene, reference compound]
cytotoxic effect on MCF-7 cells [3]: no cytotoxic effect on MCF-7 cells after 7 days of exposure | D10 (concentration required to effect a 90% reduction in the number of MCF7 cells) ([3]; 7 days of exposure): No effect | competition with [3H]-tamoxifen for AEBS ([5]; at all concentrations tested, microsome preparation not given): fails to compete with [^3 H]-tamoxifen for AEBS | RSBA (M) for AEBS, MCF-7 microsomes [5, 8]: No affinity | competition with [3H] 17 β-estradiol for ER (estrogen receptor (ER) [6]; at higher concentrations): competes with [^3 H] 17 β-estradiol for ER

CCN(CC)CCOc1ccccc1 [N,N-DPEA, N,N-diethyl-2-phenoxyethylamine hydrochloride, reference compound]
IC50 [2]: 4e-05 M | IC90 [3]: 1100 µM | IC50 [5, 8]: 8e-05 M

CCN(CC)CCOc1ccc(Cc2ccccc2)cc1 [N,N-DPPE, N,N-diethyl-2-[(4-phenylmethyl)phenoxy]ethanamine hydrochloride]
reversal of growth inhibition by estradiol (MCF-7 cells): no significant reversal of its effect by estradiol | inhibition of growth of MCF-7 cells (MCF-7 cells; absence of estradiol): significant growth inhibition, but in all cases, less than that for tamoxifen | inhibition of growth of MCF-7 cells (MCF-7 cells; presence of estradiol): significantly (P<0.001) more inhibition than tamoxifen | IC50 [2]: 4e-08 M | Tumor wt % of Controls (colon carcinoma (3C872); 8.00 mg/kg per injection): 80% | Tumor Evaluation (wt. mg) (colon carcinoma (3C872); 8.00 mg/kg per injection): 1817 mg | Tumor wt % of Controls (colon carcinoma (3C872); 16.00 mg/kg per injection): 99% | Tumor Evaluation (wt. mg) (colon carcinoma (3C872); 16.00 mg/kg per injection): 2259 mg | Tumor wt % of Controls (colon carcinoma (3C872); 32.00 mg/kg per injection): 68% | Tumor Evaluation (wt. mg) (colon carcinoma (3C872); 32.00 mg/kg per injection): 1557 mg | reduction in tumor growth (colon carcinoma (3C872); 32 mg/kg, 7 days): 30% | optimal dosage (colon carcinoma (3C872); 7-day test): 30 to 40 mg/kg | results at higher doses (colon carcinoma (3C872); above 60 mg/kg): results became poorer | induction of PgR synthesis above control levels [7]: failure to induce significant syn thesis of progesterone receptor (PgR) above control levels | IC90 [3]: 16 µM | IC50 [5, 8]: 7e-07 M | binding to AEBS [5, 9]: bind significantly to AEBS
